From the supplement of paper PMC10307832

How the values were obtained:
Test in all cases: relative viability (nuclei count vs DMSO), 5 days (fraction); higher = more cells survive
[1] = compound: COc1cc2ncn(-c3cc(OCc4ccccc4C(F)(F)F)c(C(N)=O)s3)c2cc1OC + COc1cccc2cc(-c3nc([C@H]4CC[C@H](C(=O)O)CC4)n4ncnc(N)c34)[nH]c12 [OSI-027] (partner 0.5 µM)
In short: (§1)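 Dosing by pin tool came one day after lung cancer cell lines were seeded in 1536-well plates, using either one drug or a fixed anchor-drug dose plus five library-drug doses (not always all listed) in √10 steps. After 5 days, nuclei were counted on 4× images. Relative viability is treated-well nuclei count divided by vehicle-well nuclei count, and values are medians of duplicate plates.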

[2] = compound: COc1cc2ncn(-c3cc(OCc4ccccc4C(F)(F)F)c(C(N)=O)s3)c2cc1OC + CS(=O)(=O)CCNCc1ccc(-c2ccc3ncnc(Nc4ccc(OCc5cccc(F)c5)c(Cl)c4)c3c2)o1 [Lapatinib] (partner 2 µM)
In short: as §1

[3] = compound: COc1cc2ncn(-c3cc(OCc4ccccc4C(F)(F)F)c(C(N)=O)s3)c2cc1OC + C[C@]1(O)C[C@@H](c2nc(-c3ccc4ccc(-c5ccccc5)nc4c3)c3c(N)nccn32)C1 [Linsitinib] (partner 1 µM)
In short: as §1

[4] = compound: COc1cc2ncn(-c3cc(OCc4ccccc4C(F)(F)F)c(C(N)=O)s3)c2cc1OC + Cc1nc(NC(=O)N2CCC[C@H]2C(N)=O)sc1-c1ccnc(C(C)(C)C(F)(F)F)c1 [Alpelisib] (partner 2 µM)
In short: as §1

Cell Line NCI-H1993 has a relative viability ([1]; first compound 0.05 µM) of 0.477, a relative viability ([1]; first compound 0.1581 µM) of 0.549 and a relative viability ([1]; first compound 0.5 µM) of 0.429. The relative viability ([1]; first compound 1.581 µM) was 0.438, the relative viability ([1]; first compound 5 µM) was 0.491 and the relative viability ([2]; first compound 0.05 µM) was 0.954. It also gave a relative viability ([2]; first compound 0.1581 µM) of 0.852, a relative viability ([2]; first compound 0.5 µM) of 0.594 and a relative viability ([2]; first compound 1.581 µM) of 0.466. For the same cell line, the relative viability ([2]; first compound 5 µM) was 0.51, the relative viability ([3]; first compound 0.05 µM) was 0.835 and the relative viability ([3]; first compound 0.1581 µM) was 0.782. For the same cell line, the relative viability ([3]; first compound 0.5 µM) was 0.572, the relative viability ([3]; first compound 1.581 µM) was 0.56 and the relative viability ([3]; first compound 5 µM) was 0.528. It also gave a relative viability ([4]; first compound 0.05 µM) of 0.662, a relative viability ([4]; first compound 0.1581 µM) of 0.674 and a relative viability ([4]; first compound 0.5 µM) of 0.605. The relative viability ([4]; first compound 1.581 µM) was 0.519 and the relative viability ([4]; first compound 5 µM) was 0.517.

NCI-H2009 gave a relative viability ([1]; first compound 0.05 µM) of 0.487, a relative viability ([1]; first compound 0.1581 µM) of 0.56 and a relative viability ([1]; first compound 0.5 µM) of 0.209. The relative viability ([1]; first compound 1.581 µM) was 0.176, the relative viability ([1]; first compound 5 µM) was 0.135 and the relative viability ([2]; first compound 0.05 µM) was 0.868. It also gave a relative viability ([2]; first compound 0.1581 µM) of 0.777, a relative viability ([2]; first compound 0.5 µM) of 0.318 and a relative viability ([2]; first compound 1.581 µM) of 0.169. It also gave a relative viability ([2]; first compound 5 µM) of 0.146, a relative viability ([3]; first compound 0.05 µM) of 1.19 and a relative viability ([3]; first compound 0.1581 µM) of 1.11. The relative viability ([3]; first compound 0.5 µM) was 0.918, the relative viability ([3]; first compound 1.581 µM) was 0.208 and the relative viability ([3]; first compound 5 µM) was 0.22. It also gave a relative viability ([4]; first compound 0.05 µM) of 1.07, a relative viability ([4]; first compound 0.1581 µM) of 1.05 and a relative viability ([4]; first compound 0.5 µM) of 0.667. It also gave a relative viability ([4]; first compound 1.581 µM) of 0.169 and a relative viability ([4]; first compound 5 µM) of 0.154.

In the case of NCI-H2023, the relative viability ([1]; first compound 0.05 µM) is reported as 0.323, the relative viability ([1]; first compound 0.1581 µM) is reported as 0.391 and the relative viability ([1]; first compound 0.5 µM) is reported as 0.185. For the same cell line, the relative viability ([1]; first compound 1.581 µM) was 0.0955, the relative viability ([1]; first compound 5 µM) was 0.0617 and the relative viability ([2]; first compound 0.05 µM) was 0.936. It also gave a relative viability ([2]; first compound 0.1581 µM) of 0.975, a relative viability ([2]; first compound 0.5 µM) of 0.274 and a relative viability ([2]; first compound 1.581 µM) of 0.0863. For the same cell line, the relative viability ([2]; first compound 5 µM) was 0.095, the relative viability ([3]; first compound 0.05 µM) was 0.593 and the relative viability ([3]; first compound 0.1581 µM) was 0.769. For the same cell line, the relative viability ([3]; first compound 0.5 µM) was 0.49, the relative viability ([3]; first compound 1.581 µM) was 0.123 and the relative viability ([3]; first compound 5 µM) was 0.0804. It also gave a relative viability ([4]; first compound 0.05 µM) of 0.547, a relative viability ([4]; first compound 0.1581 µM) of 0.634 and a relative viability ([4]; first compound 0.5 µM) of 0.61. For the same cell line, the relative viability ([4]; first compound 1.581 µM) was 0.0955 and the relative viability ([4]; first compound 5 µM) was 0.0801.

With NCI-H2085 the relative viability ([1]; first compound 0.05 µM) was 0.739, the relative viability ([1]; first compound 0.1581 µM) was 0.731 and the relative viability ([1]; first compound 0.5 µM) was 0.316. The relative viability ([1]; first compound 1.581 µM) was 0.295, the relative viability ([1]; first compound 5 µM) was 0.203 and the relative viability ([2]; first compound 0.05 µM) was 0.824. The relative viability ([2]; first compound 0.1581 µM) was 0.748, the relative viability ([2]; first compound 0.5 µM) was 0.527 and the relative viability ([2]; first compound 1.581 µM) was 0.347. The relative viability ([2]; first compound 5 µM) was 0.322, the relative viability ([3]; first compound 0.05 µM) was 0.885 and the relative viability ([3]; first compound 0.1581 µM) was 0.731. It also gave a relative viability ([3]; first compound 0.5 µM) of 0.601, a relative viability ([3]; first compound 1.581 µM) of 0.168 and a relative viability ([3]; first compound 5 µM) of 0.416. For the same cell line, the relative viability ([4]; first compound 0.05 µM) was 1.01, the relative viability ([4]; first compound 0.1581 µM) was 0.959 and the relative viability ([4]; first compound 0.5 µM) was 0.75. For the same cell line, the relative viability ([4]; first compound 1.581 µM) was 0.4 and the relative viability ([4]; first compound 5 µM) was 0.386.

In the case of NCI-H2087, the relative viability ([1]; first compound 0.05 µM) is reported as 0.747, the relative viability ([1]; first compound 0.1581 µM) is reported as 0.471 and the relative viability ([1]; first compound 0.5 µM) is reported as 0.181. For the same cell line, the relative viability ([1]; first compound 1.581 µM) was 0.101, the relative viability ([1]; first compound 5 µM) was 0.0877 and the relative viability ([2]; first compound 0.05 µM) was 0.995. It also gave a relative viability ([2]; first compound 0.1581 µM) of 1.06, a relative viability ([2]; first compound 0.5 µM) of 0.582 and a relative viability ([2]; first compound 1.581 µM) of 0.175. For the same cell line, the relative viability ([2]; first compound 5 µM) was 0.121, the relative viability ([3]; first compound 0.05 µM) was 0.995 and the relative viability ([3]; first compound 0.1581 µM) was 0.981. For the same cell line, the relative viability ([3]; first compound 0.5 µM) was 0.307, the relative viability ([3]; first compound 1.581 µM) was 0.168 and the relative viability ([3]; first compound 5 µM) was 0.195. The relative viability ([4]; first compound 0.05 µM) was 1.18, the relative viability ([4]; first compound 0.1581 µM) was 0.953 and the relative viability ([4]; first compound 0.5 µM) was 0.311. It also gave a relative viability ([4]; first compound 1.581 µM) of 0.169 and a relative viability ([4]; first compound 5 µM) of 0.142.

NCI-H2126 showed a relative viability ([1]; first compound 0.05 µM) of 0.715, a relative viability ([1]; first compound 0.1581 µM) of 0.771 and a relative viability ([1]; first compound 0.5 µM) of 0.604. The relative viability ([1]; first compound 1.581 µM) was 0.289, the relative viability ([1]; first compound 5 µM) was 0.22 and the relative viability ([2]; first compound 0.05 µM) was 0.772. It also gave a relative viability ([2]; first compound 0.1581 µM) of 0.776, a relative viability ([2]; first compound 0.5 µM) of 0.636 and a relative viability ([2]; first compound 1.581 µM) of 0.352. It also gave a relative viability ([2]; first compound 5 µM) of 0.244, a relative viability ([3]; first compound 0.05 µM) of 0.721 and a relative viability ([3]; first compound 0.1581 µM) of 0.772. The relative viability ([3]; first compound 0.5 µM) was 0.587, the relative viability ([3]; first compound 1.581 µM) was 0.292 and the relative viability ([3]; first compound 5 µM) was 0.264. The relative viability ([4]; first compound 0.05 µM) was 0.731, the relative viability ([4]; first compound 0.1581 µM) was 0.803 and the relative viability ([4]; first compound 0.5 µM) was 0.668. For the same cell line, the relative viability ([4]; first compound 1.581 µM) was 0.293 and the relative viability ([4]; first compound 5 µM) was 0.234.

In the case of NCI-H2228, the relative viability ([1]; first compound 0.05 µM) is reported as 0.662, the relative viability ([1]; first compound 0.1581 µM) is reported as 0.558 and the relative viability ([1]; first compound 0.5 µM) is reported as 0.192. For the same cell line, the relative viability ([1]; first compound 1.581 µM) was 0.134, the relative viability ([1]; first compound 5 µM) was 0.179 and the relative viability ([2]; first compound 0.05 µM) was 1.26. The relative viability ([2]; first compound 0.1581 µM) was 0.998, the relative viability ([2]; first compound 0.5 µM) was 0.297 and the relative viability ([2]; first compound 1.581 µM) was 0.162. It also gave a relative viability ([2]; first compound 5 µM) of 0.251, a relative viability ([3]; first compound 0.05 µM) of 0.525 and a relative viability ([3]; first compound 0.1581 µM) of 0.52. The relative viability ([3]; first compound 0.5 µM) was 0.253, the relative viability ([3]; first compound 1.581 µM) was 0.176 and the relative viability ([3]; first compound 5 µM) was 0.231. For the same cell line, the relative viability ([4]; first compound 0.05 µM) was 0.612, the relative viability ([4]; first compound 0.1581 µM) was 0.866 and the relative viability ([4]; first compound 0.5 µM) was 0.186. It also gave a relative viability ([4]; first compound 1.581 µM) of 0.187 and a relative viability ([4]; first compound 5 µM) of 0.272.

With NCI-H2347 the relative viability ([1]; first compound 0.05 µM) was 0.488, the relative viability ([1]; first compound 0.1581 µM) was 0.492 and the relative viability ([1]; first compound 0.5 µM) was 0.326. For the same cell line, the relative viability ([1]; first compound 1.581 µM) was 0.308, the relative viability ([1]; first compound 5 µM) was 0.375 and the relative viability ([2]; first compound 0.05 µM) was 0.943. For the same cell line, the relative viability ([2]; first compound 0.1581 µM) was 0.788, the relative viability ([2]; first compound 0.5 µM) was 0.858 and the relative viability ([2]; first compound 1.581 µM) was 0.507. The relative viability ([2]; first compound 5 µM) was 0.62, the relative viability ([3]; first compound 0.05 µM) was 0.99 and the relative viability ([3]; first compound 0.1581 µM) was 0.915. For the same cell line, the relative viability ([3]; first compound 0.5 µM) was 0.84, the relative viability ([3]; first compound 1.581 µM) was 0.572 and the relative viability ([3]; first compound 5 µM) was 0.759. For the same cell line, the relative viability ([4]; first compound 0.05 µM) was 0.896, the relative viability ([4]; first compound 0.1581 µM) was 0.92 and the relative viability ([4]; first compound 0.5 µM) was 0.813. It also gave a relative viability ([4]; first compound 1.581 µM) of 0.581 and a relative viability ([4]; first compound 5 µM) of 0.735.
